{"source": "patent US4942154A", "about": "“Steroidal glycolipids as host resistance stimulators against viral infection” (priority 1987, dated 1990)", "key": {"Pseudomonas aeruginosa": {"tested_on": "Pseudomonas aeruginosa", "test": "Pseudomonas aeruginosa in vivo protection study in cyclophosphamide-treated mice", "parameters": "species or system CF1 female mice", "conditions": "for LD50 Actual: PA, CY +", "protocol": "(§1) Groups of 15-20 CF1 female mice (Charles River Breeding, Cambridge, Mass.) weighing 22-28 gm were injected intraperitoneally (i.p.) with cyclophosphamide (Cytoxan; CY) at 250 mg per kg body weight. One to two hours later they were typically injected again with the test material by the route specified. Four days later, the mice were divided into groups of five, each of which were injected i.p. with a different dilution of a suspension of Pseudomonas aeruginosa (Immunotype 1). The number of survivors was determined periodically and an estimate was made of the number of CFU of Pseudomonas organisms necessary to cause 50% lethality by the cumulative method of L. J. Reed and H. Muench (Am. J. Hygiene 27 (1938) 493-497). A protective index (P.I.) was defined as the LD50 for the mice receiving cyclophosphamide and the test compound divided by the LD50 for the mice receiving cyclophosphamide alone. All control mice were injected with aqueous vehicle in the same route and schedule as the test animals.\n(§2) MATERIALS. All compounds for dosing were suspended in a sterile medium referred to as \"aqueous vehicle\" which contains 0.9% sodium chloride, 0.5% carboxymethyl cellulose, 0.4% Tween 80, and 0.9% benzyl alcohol unless otherwise stated. Test materials were evaluated via subcutaneous (s.c.), i.p., intramuscular (i.m.), orally (p.o.). and intravenous (i.v.) routes of administration. […]\n(§3) INFECTION OF ANIMALS. All bacteria were inoculated i.p. to induce infection in the in vivo experiments. Candida albicans, however, was administrated i.v. Bacteria cultures were harvested in the log phase, washed with phosphate buffered saline (PBS, and resuspended in PBS containing 10% glycerol for freezing at -70° C. in 1 ml aliquots. The number of […] (cfu's) was determined before and after freezing. Frozen cultures were routinely thawed and diluted in sterile PBS just prior to inoculation. Viable cell counts were routinely done on thawed cultures the day of challenge to determine the number of cfu's. Candida albicans was stored in distilled water at room temperature. Viable cell counts were determined the day of testing.\n(§4) The testing and results of 6-(5-cholesten-3β-yloxy)hexyl-1-thio-β-D-mannopyranoside (Example 2) against various organisms is shown in Table 2."}, "[1]": {"tested_on": "Mycobacterium aviumintracellulare", "conditions": "AIDS patients; cited from earlier work"}, "[2]": {"tested_on": "AIDS / AIDS-related complex (ARC)", "conditions": "human, in vivo; cited from earlier work"}, "[3]": {"conditions": "in vivo; cited from earlier work"}, "[4]": {"conditions": "cited from earlier work; for adverse effects, toxicity, tolerability: clinical"}, "HIV": {"tested_on": "HIV", "conditions": "cited from earlier work"}, "[5]": {"tested_on": "Herpes Simplex Virus-1 (HSV1)", "test": "Antiviral experiment in mice infected IP with Herpes Simplex Virus-1", "assay_type": "in vivo, ICR mice", "conditions": "for Average Day of Death, Pre Treatment: HSV1 day 5; for Average Day of Death, Post Treatment: HSV1 prior to treatment", "protocol": "An antiviral experiment was conducted to compare treatment with 6-(5-Cholesten-3β-yloxy)hexyl 1-thio-β-D-mannopyranoside (Example 2) in mice infected IP with Herpes Simplex Virus-1 (HSV1) immediately before (post treatment) or after 5 days of treatment (pretreatment).\nTen mice (ICR, 20 gm, mixed sexes) were pretreated by SC injection of a 0.1 mL suspension of test compound twice a day for 4 days. On day 5, the mice were injected IP with 0.5 mL solution of HSV1 (Schloser, 10-5). The post treatment group was infected with HSV1 prior to administration of test compound. Day of death from time of infection with HSV1 was recorded for each mouse and average day of death per treatment group was calculated."}, "Staphylococcus aureus": {"tested_on": "Staphylococcus aureus", "test": "In vivo protection from Staphylococcus aureus infection in cyclophosphamide-treated mice", "parameters": "species or system CF1 female mice", "conditions": "SA, CY +", "protocol": "as §1\nMATERIALS. All compounds for dosing were suspended in a sterile medium referred to as \"aqueous vehicle\" which contains 0.9% sodium chloride, 0.5% carboxymethyl cellulose, 0.4% Tween 80, and 0.9% benzyl alcohol unless otherwise stated. Test materials were evaluated via subcutaneous (s.c.), i.p., intramuscular (i.m.), orally (p.o.). and intravenous (i.v.) routes of administration. The initial test dose was 40 mg per kg per mouse, with each active compound subsequently titrated below this level.\nas §3, §4"}, "Candida albicans": {"tested_on": "Candida albicans", "test": "In vivo protection from Candida albicans infection in cyclophosphamide-treated mice", "parameters": "species or system CF1 female mice", "conditions": "CA, CY +", "protocol": "as §1, §2\nas §3, with “All bacteria were inoculated i.p. to induce infection in the in vivo experiments.” left out, “testing. […]” for “testing.”"}, "Klebsiella pheumoniae": {"tested_on": "Klebsiella pheumoniae", "test": "In vivo protection from Klebsiella infection in cyclophosphamide-treated mice", "parameters": "species or system CF1 female mice", "conditions": "KP; CY +; 40 mg/kg", "protocol": "as §1, §2"}, "[6]": {"tested_on": "HIV reverse transcriptase", "conditions": "cited from earlier work"}, "[7]": {"tested_on": "reverse transcriptase in several retroviruses", "conditions": "in vitro; cited from earlier work"}, "[8]": {"tested_on": "AIDS-related Kaposi's sarcoma", "conditions": "cited from earlier work"}}}
{"compound": "6-(20S-Amino-pregn-5-en-3β-yloxy)hexyl 1-thio-β-D-mannopyranoside [Example 14]", "values": [{"measurement": "Protective Index (log)", "setting": "Pseudomonas aeruginosa; Table 3, Pseudomonas aeruginosa, cyclophosphamide-treated mice, dose not given", "result": 4.37, "unit": "log"}]}
{"compound": "CO[C@H]1/C=C/O[C@@]2(C)Oc3c(C)c(O)c4c(c3C2=O)C2=NC3(CCN(CC(C)C)CC3)NC2=C(NC(=O)/C(C)=C\\C=C\\[C@H](C)[C@H](O)[C@@H](C)[C@@H](O)[C@@H](C)[C@H](OC(C)=O)[C@@H]1C)C4=O", "note": "[Ansamycin, rifabutin]", "values": [{"measurement": "efficacy in opportunistic infection", "setting": "[1]", "result": "some efficacy"}]}
{"compound": "Cc1cn([C@H]2C[C@H](N=[N+]=[N-])[C@@H](CO)O2)c(=O)[nH]c1=O", "note": "[Azidothymidine, 3'-azido-3'-deoxythymidine]", "values": [{"measurement": "clinical effect in AIDS / ARC patients", "setting": "[2]", "result": "First drug to show promise in prolonging lives of patients with AIDS or AIDS-related complex (ARC)"}, {"measurement": "central nervous system penetration", "setting": "[3]", "result": "effectively penetrates central nervous system"}]}
{"compound": "CC(C)(N1CC1C#N)N1CC1C(N)=O", "note": "(stereo not shown) [Azimexon]", "values": [{"measurement": "clinical effect in AIDS / ARC patients", "setting": "[2]", "result": "improvements in symptoms and immune function in patients with ARC but not AIDS"}, {"measurement": "adverse effects, toxicity, tolerability", "setting": "[4]", "result": "only toxic effect was mild hemolysis"}]}
{"compound": "CC(C)(S)[C@@H](N)C(=O)O", "note": "[D-Penicillamine, 3-mercapto-D-valine]", "values": [{"measurement": "clinical effect in AIDS / ARC patients", "setting": "[2]", "result": "suppressed the virus"}, {"measurement": "T cell levels", "setting": "[4]; 13 AIDS patients with perpetually swollen glands", "result": "temporarily depressed T cell levels"}, {"measurement": "effect on HIV infectivity, growth or reproduction", "setting": "HIV", "result": "Inhibits HIV reproduction in humans"}]}
{"compound": "CC(C)CCC[C@@H](C)[C@H]1CC[C@H]2[C@@H]3CC=C4C[C@@H](OCCCCCCS[C@@H]5O[C@H](CO)[C@@H](O)[C@H](O)[C@@H]5O)CC[C@]4(C)[C@H]3CC[C@]12C", "note": "[Example 2, 6-(5-Cholesten-3β-yloxy)hexyl 1-thio-β-D-mannopyranoside]", "values": [{"measurement": "Average Day of Death, Pre Treatment", "setting": "[5]; 0.8 mg/kg SC twice a day for 4 days, P 0.797", "result": 8.6, "unit": "days"}, {"measurement": "Average Day of Death, Post Treatment", "setting": "[5]; 0.8 mg/kg SC twice a day", "result": 9.1, "unit": "days"}, {"measurement": "Average Day of Death, Pre Treatment", "setting": "[5]; 3.1 mg/kg SC twice a day for 4 days, P 0.348", "result": 7.1, "unit": "days"}, {"measurement": "Average Day of Death, Post Treatment", "setting": "[5]; 3.1 mg/kg SC twice a day", "result": 6.3, "unit": "days"}, {"measurement": "Average Day of Death, Pre Treatment", "setting": "[5]; 12.5 mg/kg SC twice a day for 4 days, P 0.725", "result": 8.0, "unit": "days"}, {"measurement": "Average Day of Death, Post Treatment", "setting": "[5]; 12.5 mg/kg SC twice a day", "result": 7.5, "unit": "days"}, {"measurement": "Average Day of Death, Pre Treatment", "setting": "[5]; 50 mg/kg SC twice a day for 4 days, P 0.003", "result": 11.0, "unit": "days"}, {"measurement": "Average Day of Death, Post Treatment", "setting": "[5]; 50 mg/kg SC twice a day", "result": 6.4, "unit": "days"}, {"measurement": "protection from fatal viral infection over placebo", "setting": "[5]; 50 mg/kg twice a day for four days, by day of death", "result": "statistically enhanced protection from fatal viral infection over placebo treated animals"}, {"measurement": "protection, pretreated over post treatment group", "setting": "[5]; pretreated mice versus post treatment group", "result": "statistically enhanced protection over the post treatment group"}, {"measurement": "LD50 Actual", "setting": "Pseudomonas aeruginosa; 10 mg/kg", "result": "3.2 × 10^4 CFU"}, {"measurement": "LD50 Actual", "setting": "Pseudomonas aeruginosa; 20 mg/kg", "result": "3.2 × 10^5 CFU"}, {"measurement": "LD50 Actual", "setting": "Pseudomonas aeruginosa; 40 mg/kg", "result": "1.22 × 10^6 CFU"}, {"measurement": "LD50 Actual", "setting": "Pseudomonas aeruginosa; 80 mg/kg", "result": "2.59 × 10^6 CFU"}, {"measurement": "LD50 Actual", "setting": "Staphylococcus aureus; 5 mg/kg", "result": "3.38 × 10^5 CFU"}, {"measurement": "LD50 Actual", "setting": "Staphylococcus aureus; 10 mg/kg", "result": "1.04 × 10^6 CFU"}, {"measurement": "LD50 Actual", "setting": "Staphylococcus aureus; 20 mg/kg", "result": "2.38 × 10^6 CFU"}, {"measurement": "LD50 Actual", "setting": "Staphylococcus aureus; 40 mg/kg", "result": "1.58 × 10^7 CFU"}, {"measurement": "LD50 Actual", "setting": "Candida albicans; 10 mg/kg", "result": "3.68 × 10^4 CFU"}, {"measurement": "LD50 Actual", "setting": "Candida albicans; 20 mg/kg", "result": "5.2 × 10^4 CFU"}, {"measurement": "LD50 Actual", "setting": "Candida albicans; 40 mg/kg", "result": "7.88 × 10^4 CFU"}, {"measurement": "LD50 Actual", "setting": "Klebsiella pheumoniae", "result": "4.73 × 10^7 CFU"}, {"measurement": "P.I. (log)", "setting": "Klebsiella pheumoniae", "result": 1.12, "unit": "log"}]}
{"compound": "O=C(O)P(=O)(O)O", "note": "[Foscarnet, trisodium phosphonoformate]", "values": [{"measurement": "adverse effects, toxicity, tolerability", "setting": "[4]", "result": "serious side effects"}, {"measurement": "HIV reverse transcriptase inhibition", "setting": "[6]", "result": "Inhibits HIV reverse transcriptase activity in vitro at levels pharmacologically acceptable in vivo"}]}
{"compound": "CC(=O)Nc1ccc(C(=O)O)cc1.CC(=O)Nc1ccc(C(=O)O)cc1.CC(=O)Nc1ccc(C(=O)O)cc1.CC(O)CN(C)C.CC(O)CN(C)C.CC(O)CN(C)C.O=c1[nH]cnc2c1ncn2[C@@H]1O[C@H](CO)[C@@H](O)[C@H]1O", "note": "[Inosine pranobex, p-Acetamidobenzoic acid salt of (1-dimethylamino-2-propanol:inosinate complex 3:3:1 molar ratio)]", "values": [{"measurement": "clinical effect in AIDS / ARC patients", "setting": "[2]", "result": "improve immune function in ARC patients"}]}
{"compound": "NC(=O)c1ncn([C@@H]2O[C@H](CO)[C@@H](O)[C@H]2O)n1", "note": "[Ribavirin, 1-β-D-ribofuranosyl-1,2,4-triazole-3-carboxamide]", "values": [{"measurement": "clinical effect in AIDS / ARC patients", "setting": "[2]", "result": "inhibited viral replication and improved immune function in AIDS patients"}]}
{"compound": "Cc1ccc(C(=O)Nc2ccc(S(=O)(=O)O)c3cc(S(=O)(=O)O)cc(S(=O)(=O)O)c23)cc1NC(=O)c1cccc(NC(=O)Nc2cccc(C(=O)Nc3cc(C(=O)Nc4ccc(S(=O)(=O)O)c5cc(S(=O)(=O)O)cc(S(=O)(=O)O)c45)ccc3C)c2)c1", "note": "[Suramin]", "values": [{"measurement": "clinical effect in AIDS / ARC patients", "setting": "[2]", "result": "little or no evidence of clinical improvement or immunologic recovery"}, {"measurement": "HIV reverse transcriptase inhibition", "setting": "[6]", "result": "Potent inhibitor of HIV reverse transcriptase"}]}
{"compound": "ammonium 21-tungsto-9-antimoniate [HPA-23]", "values": [{"measurement": "clinical effect in AIDS / ARC patients", "setting": "[2]", "result": "no therapeutic benefit has been documented in AIDS patients"}, {"measurement": "reverse transcriptase inhibition in retroviruses", "setting": "[7]", "result": "Inhibits reverse transcriptase in several retroviruses in vitro"}, {"measurement": "effect on HIV infectivity, growth or reproduction", "setting": "HIV", "result": "some tendency to check the growth of HIV"}]}
{"compound": "α-Interferon", "values": [{"measurement": "effect on HIV infectivity, growth or reproduction", "setting": "HIV", "result": "Checks the growth of HIV in vitro"}, {"measurement": "tumor regression", "setting": "[8]", "result": "induced tumor regression in some AIDS-related Kaposi's sarcoma cases"}]}
